From US11413295B2, “Oral preparation of obeticholic acid” (Intercept Pharmaceuticals, Inc., priority 2016, dated 2022)
In brackets after ≈: the same amount, converted by molar mass. Where two headings read alike, the source gives them in different places.

What was measured:
[1] = Chemical stability: obeticholic acid dimer production by HPLC (Test Example 3); type: physicochemical
Protocol: The following assessments were carried out to see whether, in cases where the amorphous form of obeticholic acid was used, there were any changes in chemical stability even after wet granulation. Specifically, measurements were taken of the amounts in which obeticholic acid dimers were produced (referred to in Patent Document 2 as “Impurity 6,” “3α (3α, 7α-dihydroxy-6α-ethyl-5β-cholan-24-oyloxy)-7α-hydroxy-6α-ethyl-5β-cholan-24-oic acid,” and “6ECDCA dimer”), which were confirmed to have a high propensity to increase in the preparation process and stability tests among known related substances of obeticholic acid disclosed in Patent Document 2, for example.
Test tubes containing the obeticholic acid prepared in Example 19 and the obeticholic acid 20 mg FC tablets of Example 4 were stored under the following conditions. The amounts in which obeticholic acid dimer was produced before (initial) and after storage were measured in accordance with Test Example 3. […]
4 weeks at 60° C. (closed)
Acetonitrile/water (9/1) was added in an amount of exactly 10 mL to test tubes that had been retrieved from storage, and the contents were ultrasonically treated to extract the obeticholic acid. Following centrifugation (10 min at 3000 rpm), the supernatant was made into samples for HPLC assay (500 μg/mL obeticholic acid).
One tablet containing 20 mg obeticholic acid (per tablet) that had been retrieved from storage was introduced into a 40 mL graduated measuring flask. Acetonitrile/water (9/1) was added to the graduated measuring flask, the contents were ultrasonically treated (10 min), and it was confirmed that the tablet had disintegrated. The contents were thoroughly shaken (60 min at 300 rpm) using a shaker, and were again ultrasonically treated to extract the obeticholic acid. Acetonitrile/water (9/1) were added to a constant volume, followed by centrifugation (10 min at 3000 rpm), and the supernatant was made into samples for HPLC assay (500 μg/mL).
50 mg of obeticholic acid was weighed out into a 100 mL graduated measuring flask and dissolved using acetonitrile/water (9/1) (500 μg/mL). The resulting solution was diluted with acetonitrile/water (9/1) to prepare 15.0 μg/mL (3.0%), 5.0 μg/mL (1.0%), and 0.25 μg/mL (0.05%) standard solutions.
The above three standard solutions were used to produce a calibration curve, and the obeticholic acid dimer contained in the sample solutions was quantified. The conditions of analysis are shown below.
Detector: Charged particle detector
Column: by Sigma-Aldrich, SUPELCO Discovery C8 (particle size: 5 μm; internal
Mobile phase: Acetonitrile/methanol/acetic acid aqueous solution (pH 3.0) mixture (8/1/1)

[2] = Obeticholic acid solubility in various test solutions; type: physicochemical; details: read-out: Dissolved concentration

Amount of obeticholic acid dimer production ([1]; 50° C., 85% RH open 4 W): 0.83% | Increase in obeticholic acid dimer from initial product ([1]; 50° C., 85% RH open 4 W): 0.79% | Amount of obeticholic acid dimer production ([1]; 60° C. closed 4 W): 0.81% | Increase in obeticholic acid dimer from initial product ([1]; 60° C. closed 4 W): 0.77% | Amount of obeticholic acid dimer production ([1]; Initial): 0.04% | solubility ([2]; JP1, pH 1.2, simulated gastric fluid): 4.07 µg/mL (≈ 9.68 µM) | solubility ([2]; JP2, pH 6.8, aqueous buffer): 306 µg/mL (≈ 729 µM) | solubility ([2]; aqueous buffer, pH 3.0 McIlvaine buffer): 4.43 µg/mL (≈ 10.5 µM) | solubility ([2]; aqueous buffer, pH 4.0 McIlvaine buffer): 4.66 µg/mL (≈ 11.1 µM) | solubility ([2]; aqueous buffer, pH 5.0 McIlvaine buffer): 11.4 µg/mL (≈ 27.1 µM) | solubility ([2]; aqueous buffer, pH 6.0 McIlvaine buffer): 60.6 µg/mL (≈ 144 µM) | solubility ([2]; water): 21.4 µg/mL (≈ 51 µM)
Structure (SMILES): CC[C@H]1[C@@H](O)[C@@H]2[C@H](CC[C@]3(C)[C@@H]([C@H](C)CCC(=O)O)CC[C@@H]23)[C@@]2(C)CC[C@@H](O)C[C@@H]12 [Obeticholic acid, 6α-ethyl-3α, 7 α-dihydroxy-5β-cholan-24-oic acid]
